# Like-named read-outs stand apart in the source and are kept apart here.
# Biological target: T1, DGAT1 (Homo sapiens, UniProt O75907)
# T1 sequence (O75907 1-488): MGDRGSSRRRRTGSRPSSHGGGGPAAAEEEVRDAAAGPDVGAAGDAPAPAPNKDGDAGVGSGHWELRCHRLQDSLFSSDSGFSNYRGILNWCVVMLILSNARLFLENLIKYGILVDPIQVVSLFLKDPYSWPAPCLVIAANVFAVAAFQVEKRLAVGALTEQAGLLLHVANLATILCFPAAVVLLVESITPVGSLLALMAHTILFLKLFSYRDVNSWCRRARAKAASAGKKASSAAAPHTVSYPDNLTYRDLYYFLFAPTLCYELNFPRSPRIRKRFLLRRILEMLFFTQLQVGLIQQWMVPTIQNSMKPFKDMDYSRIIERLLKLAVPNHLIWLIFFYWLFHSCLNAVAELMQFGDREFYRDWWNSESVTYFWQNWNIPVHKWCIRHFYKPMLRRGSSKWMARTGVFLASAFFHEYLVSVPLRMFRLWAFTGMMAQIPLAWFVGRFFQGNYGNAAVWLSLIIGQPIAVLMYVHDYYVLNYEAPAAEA
# Assay: Human DGAT1 IC50 enzyme assay (Flashplate, 14C-labeled acyl-CoA)
# Assay type: biochemical
# Set-up: made in house
# Experimental: The ability of compounds to inhibit DGAT enzyme activity is determined by calculating IC50 values of test compounds. Ki values of DGAT1 are calculated as follows: Cheng-Prusoff equation: Ki=IC50/(1+[S]/Km)
# (1) Human DGAT1 IC50 (nM) Experiment
# Human DGAT1 activity was determined as follows:
# Expressing human DGAT1 enzyme, used diacylglycerol and 14C-labeled acyl-CoA as the substrate, choose PE Company Flashplate testing board to build DGAT1 enzyme reaction system. 14C-labeled acyl-CoA binds to diacylglycerol by covalent bonding after enzymology reaction, and generates the product of 14C-labeled triglyceride. 14C-labeled acyl-CoA substrate is dissolved in reaction solution and 14C-labeled triglyceride product combine with phospholipids of Flashplate plate bottom layer, thus effectively separate labeled substrates and products. The radioactive of 14C-labeled triglyceride which is combined with phospholipid layer is counted, and the potencies of DGAT-1 inhibition for the compounds are determined by calculating the IC50 values.
# [1] = average of first and second, read-out: hDGAT1 IC50(nM) Average
# [2] = first determination, read-out: hDGAT1 IC50(nM) First
# [3] = second determination, read-out: hDGAT1 IC50(nM) Second
Structure (SMILES),IC50 [1],IC50 [2],IC50 [3]
"Nc1ncnc2c1C(=O)N(c1ccc(-c3cnn(CCC(=O)O)c3)c(F)c1)CCO2 [Compound 37, 3-(4-(4-(4-amino-5-oxo-7,8-dihydropyrimido[5,4-f][1,4]oxazepin-6(5H)-yl)-2-fluorophenyl)-1H-pyrazol-1-yl) propanoic acid]",79.6 nM,84.6 nM,74.5 nM
"Cc1nn(CCC(=O)O)c(C)c1-c1ccc(N2CCOc3ncnc(N)c3C2=O)cc1Cl [Compound 38, 3-(4-(4-(4-amino-5-oxo-7,8-dihydropyrimido[5,4-f][1,4]oxazepin-6(5H)-yl)-2-chlorophenyl)-3,5-dimethyl-1H-pyrazol-1-yl)propanoic acid]",50.7 nM,46.5 nM,55 nM
"Nc1ncnc2c1C(=O)N(c1ccc(-c3cn(CC(=O)O)nc3C(F)(F)F)cc1)CCO2 [Compound 39, 2-(4-(4-(4-amino-5-oxo-7,8-dihydropyrimido[5,4-f][1,4]oxazepin-6(5H)-yl)phenyl)-3-(trifluoromethyl)-1H-pyrazol-1-yl)acetic acid]",98.4 nM,72.9 nM,124 nM
"CC(C)(O)Cn1cc(-c2ccc(N3CCOc4ncnc(N)c4C3=O)cc2Cl)cn1 [Compound 42, 4-amino-6-(3-chloro-4-(1-(2-hydroxy-2-methylpropyl)-1H-pyrazol-4-yl)phenyl)-7,8-dihydropyrimido[5,4-f][1,4]oxazepin-5(6H)-one]",59.6 nM,75 nM,44.2 nM
"CC(C)(CO)Cn1cc(-c2ccc(N3CCOc4ncnc(N)c4C3=O)cc2Cl)cn1 [Compound 44, 4-amino-6-(3-chloro-4-(1-(3-hydroxy-2,2-dimethylpropyl)-1H-pyrazol-4-yl)phenyl)-7,8-dihydropyrimido[5,4-f][1,4]oxazepin-5(6H)-one]",45 nM,59.5 nM,30.5 nM
"NC(=O)Cn1cc(-c2ccc(N3CCOc4ncnc(N)c4C3=O)cc2Cl)cn1 [Compound 46, 2-(4-(4-(4-amino-5-oxo-7,8-dihydropyrimido[5,4-f][1,4]oxazepin-6(5H)-yl)-2-chlorophenyl)-1H-pyrazol-1-yl)acetamide]",95.6 nM,89 nM,102 nM
"Cc1cc(N2CCOc3ncnc(N)c3C2=O)cc(C)c1-c1cn(CC2(C)COC2)nc1C [Compound 47, 4-amino-6-(3,5-dimethyl-4-(3-methyl-1-((3-methyloxetan-3-yl)methyl)-1H-pyrazol-4-yl)phenyl)-7,8-dihydropyrimido[5,4-f][1,4]oxazepin-5(6H)-one]",87 nM,65.4 nM,109 nM
"Nc1ncnc2c1C(=O)N(c1ccc(-c3cnn(CC(=O)O)c3)c(Cl)c1)CCO2 [Compound 56, 2-(4-(4-(4-amino-5-oxo-7,8-dihydropyrimido [5,4-f][1,4]oxaxepin-6(5H)-yl)-2-chlorophenyl)-1H-pyrazol-1-yl)acetic acid]",51.8 nM,65.8 nM,37.7 nM
"Cc1cc(N2CCOc3ncnc(N)c3C2=O)ccc1-c1cnn(CC(=O)O)c1 [Compound 57, 2-(4-(4-(4-amino-5-oxo-7,8-dihydropyrimido [5,4-f][1,4]oxazepin-6(5H)-yl)-2-methylphenyl)-1H-pyrazol-1-yl)acetic acid]",91.9 nM,81.3 nM,102 nM
"Cc1cc(N2CCOc3ncnc(N)c3C2=O)ccc1-c1cnn(C(C(=O)O)C(C)C)c1 (stereo not drawn) [Compound 59, 2-(4-(4-(4-amino-5-oxo-7,8-dihydropyrimido [5,4-f][1,4]oxazepin-6(5H)-yl)-2-methylphenyl)-1H-pyrazol-1-yl)-3-methylbutanoic acid]",80.3 nM,54.9 nM,106 nM
Nc1ncnc2c1C(=O)N(c1ccc(-c3cn(CCC(=O)O)nc3C(F)(F)F)cc1)CCO2 [Compound 62],68.2 nM,57.9 nM,78.6 nM
"CCC(C(=O)O)n1cc(-c2ccc(N3CCOc4ncnc(N)c4C3=O)cc2C)cn1 (stereo not drawn) [Compound 64, 2-(4-(4-(4-amino-5-oxo-7,8-dihydropyrimido [5,4-f][1,4]oxazepin-6(5H)-yl)-2-methylphenyl)-1H-pyrazol-1-yl)butanoic acid]",57.6 nM,38.7 nM,76.5 nM
"Cc1cc(N2CCOc3ncnc(N)c3C2=O)cc(C)c1-c1cnn(CC(=O)O)c1 [Compound 67, 2-(4-(4-(4-amino-5-oxo-7,8-dihydropyrimido [5,4-f][1,4]oxazepin-6(5H)-yl)-2,6-dimethylphenyl)-1H-pyrazol-1-yl)acetic acid]",53.2 nM,56.1 nM,50.3 nM

# Stronger by IC50 [1], values ahead:
IC50 [1],IC50 [2],IC50 [3],Structure (SMILES)
29.3 nM,37.7 nM,21 nM,"Cc1nn(CC(=O)O)cc1-c1ccc(N2CCOc3ncnc(N)c3C2=O)cc1Cl [Compound 36, 2-(4-(4-(4-amino-5-oxo-7,8-dihydropyrimido[5,4-f][1,4]oxazepin-6(5H)-yl)-2-chlorophenyl)-3-methyl-1H-pyrazol-1-yl)acetic acid]"
17.6 nM,18.5 nM,16.7 nM,"Cc1cc(N2CCOc3ncnc(N)c3C2=O)cc(C)c1-c1cn(CC(F)F)nc1C [Compound 43, 4-amino-6-(4-(1-(2,2-difluoroethyl)-3-methyl-1H-pyrazol-4-yl)-3,5-dimethylphenyl)-7,8-dihydropyrimido[5,4-f][1,4]oxazepin-5(6H)-one]"
16 nM,17.4 nM,14.6 nM,"CC(C)Cn1cc(-c2ccc(N3C[C@@H](C)Oc4ncnc(N)c4C3=O)cc2Cl)cn1 [Compound 45, (R)-4-amino-6-(3-chloro-4-(1-isobutyl-1H-pyrazol-4-yl)phenyl)-8-methyl-7,8-dihydropyrimido[5,4-f][1,4]oxazepin-5(6H)-one]"
37.8 nM,28.2 nM,47.4 nM,"CCC(C(=O)O)n1cc(-c2ccc(N3CCOc4ncnc(N)c4C3=O)cc2Cl)cn1 (stereo not drawn) [Compound 61, 2-(4-(4-(4-amino-5-oxo-7,8-dihydropyrimido [5,4-f][1,4]oxazepin-6(5H)-yl)-2-chlorophenyl)-1H-pyrazol-1-yl)butanoic acid]"
41.5 nM,39 nM,44.1 nM,"CC(C)C(C(=O)O)n1cc(-c2ccc(N3CCOc4ncnc(N)c4C3=O)cc2Cl)cn1 (stereo not drawn) [Compound 65, 2-(4-(4-(4-amino-5-oxo-7,8-dihydropyrimido [5,4-f][1,4]oxazepin-6(5H)-yl)-2-chlorophenyl)-1H-pyrazol-1-yl)-3-methylbutanoic acid]"
42.6 nM,47.1 nM,38.2 nM,"Cc1cc(N2CCOc3ncnc(N)c3C2=O)cc(C)c1-c1cnn(C(C)(C)C(=O)O)c1 [Compound 66, 2-(4-(4-(4-amino-5-oxo-7,8-dihydropyrimido [5,4-f][1,4]oxazepin-6(5H)-yl)-2,6-dimethylphenyl)-1H-pyrazol-1-yl)-2-methylpropanoic acid]"
20.4 nM,27.6 nM,13.2 nM,"Cc1cc(N2CCOc3ncnc(N)c3C2=O)cc(C)c1-c1cnn(CCC(=O)O)c1 [Compound 70, 3-(4-(4-(4-amino-5-oxo-7,8-dihydropyrimido [5,4-f][1,4]oxazepin-6(5H)-yl)-2,6-dimethylphenyl)-1H-pyrazol-1-yl)propanoic acid]"

# Source: patent publication US9809604B2, “DGAT1 inhibitor and preparation method and use thereof” (Qingdao Huanghai Pharmaceutical Co., Ltd., priority 2013, dated 2017)
